Laboratory results reported in patent US20070213305A1, “N-alkyl-N-aryl-thienopyrimidin-4-amines and analogs as activators of caspases and inducers of apoptosis and the use thereof” (Cytovia, Inc., priority 2005, published 2007).
Like-named read-outs stand apart in the source and are kept apart here.

Columns and labels:
MDAMB435 cells = assay: Inhibition of cell proliferation (GI50, CellTiter-Glo) in MDAMB435 cells; assay type: cell-based; details: MDAMB435, 48 h incubation, read-out: GI50 in Cancer Cells GI50 (nM) MDAMB435
Procedure: (§1) T-47D, HT29, H1299, MX-1 and MDAMB435 cells were grown and harvested as in Example 29. An aliquot of 90 μL of cells (4.4×10^4 cells/mL) was added to a well of a 96-well microtiter plate containing 5 μL of a 10% DMSO in RPMI-1640 media solution containing 10 nM to 100 μM of N-(4-methoxyphenyl)-N,2-dimethylthieno[2,3-d]pyrimidin-4-amine (1 nM to 10 μM final) or related compounds. An aliquot of […] of cells was added to a well of a 96-well microtiter plate containing 5 μL of a 10% DMSO in RPMI-1640 media solution without compound as the control sample for maximal cell proliferation (LMax). The samples were mixed by agitation and then incubated at 37° C. for 48 h in a 5% CO2-95% humidity incubator. After incubation, the samples were removed from the incubator and 25 μL of CellTiter-Glo™ reagent (Promega) was added. The samples were mixed by agitation and incubated at room temperature for 10-15 min. Plates were then read using a luminescent plate reader (Model SPECTRAfluor Plus, Tecan) to give Ltest values.
(§2) The samples were mixed by agitation and then incubated at 37° C. for 0.5 h in a 5% CO2-95% humidity incubator. After incubation, the samples were removed from the incubator and 25 μL of CellTiter-Glo™ reagent (Promega) was added. The samples were mixed by agitation and incubated at […] room temperature in a 5% CO2-95% humidity incubator. […] was read as above, (Lstart) defining luminescence for initial cell number used as baseline in GI50 determinations. ps Calculation:
(§3) GI50 (dose for 50% inhibition of cell proliferation) is the concentration where [(LTest-LStart)/(LMax-LStart)]=0.5.

[1] = system: multi-drug resistant (MDR) murine leukemia cell line P388ADR; assay: Inhibition of cell proliferation (GI50) in P388/ADR cells; assay type: cell-based
Procedure: as §1, §2, §3
(§4) Several compounds were tested in other cancer cell lines, including human sarcoma cell line MES-SA and multi-drug resistant (MDR) human sarcoma cell line MES-SA/ADR, murine leukemia cell line P388 and multi-drug resistant (MDR) murine leukemia cell line P388ADR, and the data are summarized in Table IV.

[2] = system: human sarcoma cell line MES-SA; assay: Inhibition of cell proliferation (GI50) in MES-SA cells; assay type: cell-based
Procedure: as §1, §2, §3, §4

H1299 cells = assay: Inhibition of cell proliferation (GI50, CellTiter-Glo) in H1299 cells; assay type: cell-based, human; details: H1299, 48 h incubation, read-out: GI50 in Cancer Cells GI50 (nM) H1299
Procedure: as §1, §2, §3

[3] = system: human breast cancer cell line T-47D; assay: Caspase cascade activation (DEVD-R110 fluorogenic substrate) in T-47D cells; assay type: cell-based; details: 24 h, read-out: Caspase Activation Potency EC50 (nM) (24 h) T-47D
Procedure: (§5) Human breast cancer cell line T-47D, human lung cancer cell line H1299 and human hepatocellular carcinoma cell line SNU398 were grown according to media component mixtures designated by American Type Culture Collection+10% FCS (Invitrogen Corporation), in a 5% CO2-95% humidity incubator at 37° C. T-47D and H1299 cells were maintained at a cell density between 50 and 80% confluency at a cell density of 0.1 to 0.6×10^6 cells/mL. Cells were harvested at 600×g and resuspended at 0.65×10^6 cells/mL into appropriate media+10% FCS. An aliquot of 22.5 μL of cells was added to a well of a 384-well microtiter plate containing 2.5 μL of a 10% DMSO in RPMI-1640 media solution containing 0.16 to 100 μM of N-(4-methoxyphenyl)-N, 2-dimethylthieno[3,2-d]pyrimidin-4-amine or other test compound (0.016 to 10 μM final). An aliquot of 22.5 μL of cells was added to a well of a 384-well microtiter plate containing 2.5 μL of a 10 % DMSO in RPMI-1640 media solution without test compound as the control sample. The samples were mixed by agitation and then incubated at 37° C. for 24 h or 48 h in a 5% CO2-95% humidity incubator. After incubation, the samples were removed from the incubator and 25 μL of a solution containing 14 μM of N-(Ac-DEVD)-N′-ethoxycarbonyl-R110 (SEQ ID No.:1) fluorogenic substrate (Cytovia, Inc.; WO99/18856), 20% sucrose (Sigma), 20 mM DTT (Sigma), 200 mM NaCI (Sigma), 40 mM Na PIPES buffer pH 7.2 (Sigma), and 500 μg/mL lysolecithin (Calbiochem) was added. The samples were mixed by agitation and incubated at room temperature. Using a fluorescent plate reader (Model SPECTRAfluor Plus, Tecan), an initial reading (T=0) was made approximately 1-2 min after addition of the substrate solution, employing excitation at 485 nm and emission at 530 nm, to determine the background fluorescence of the control sample. After the 3 h incubation, the samples were read for fluorescence as above (T=3 h).
(§6) The Relative Fluorescence Unit values (RFU) were used to calculate the sample readings as follows: RFU(T=3h)-Control RFU(T=0)=Net RFU(T=3h)
(§7) The activity of caspase cascade activation was determined by the ratio of the net RFU value for N-(4-methoxyphenyl)-N,2-dimethylthieno[3,2-d]pyrimidin-4-amine or other test compound to that of control samples. The EC50 (nM) was determined by a sigmoidal dose-response calculation (Prism 3.0, GraphPad Software Inc.).

[4] = system: multi-drug resistant (MDR) human sarcoma cell line MES-SA/ADR; assay: Inhibition of cell proliferation (GI50) in MES-SA/ADR cells; assay type: cell-based
Procedure: as §1, §2, §3, §4

[5] = system: human lung cancer cell line H1299; assay: Caspase cascade activation (DEVD-R110 fluorogenic substrate) in H1299 cells; assay type: cell-based; details: read-out: Caspase Activation Potency EC50 (nM) (24 h) H1299
Procedure: as §5, §6, §7

MX-1 cells = assay: Inhibition of cell proliferation (GI50, CellTiter-Glo) in MX-1 cells; assay type: cell-based; details: MX1, 48 h incubation, read-out: GI50 in Cancer Cells GI50 (nM) MX1
Procedure: as §1, §2, §3

[6] = system: murine leukemia cell line P388; assay: Inhibition of cell proliferation (GI50) in P388 cells; assay type: cell-based
Procedure: as §1, §2, §3, §4

HT29 cells = assay: Inhibition of cell proliferation (GI50, CellTiter-Glo) in HT29 cells; assay type: cell-based; details: HT29, 48 h incubation, read-out: GI50 in Cancer Cells GI50 (nM) HT29
Procedure: as §1, §2, §3

T-47D cells = assay: Inhibition of cell proliferation (GI50, CellTiter-Glo) in T-47D cells; assay type: cell-based, human; details: T47D, 48 h incubation, read-out: GI50 in Cancer Cells GI50 (nM) T47D
Procedure: as §1, §2, §3

[7] = system: human hepatocellular carcinoma cell line SNU398; assay: Caspase cascade activation (DEVD-R110 fluorogenic substrate) in SNU398 cells; assay type: cell-based
Procedure: as §5, §6, §7
Several compounds were also tested in other cancer cells lines (48 h assay), including human hepatocellular carcinoma cell line SNU398, human colon carcinoma cell line […], human B cell lymphoblastoid cell line Ramos, human Burkitt's lymphoma cell line Namalwa, and cervical cancer cell line HeLa, and the data are summarized in Table II.

HCT116 = assay: Caspase cascade activation in HCT116 cells; assay type: cell-based; details: Homo sapiens, HCT-116; HCT116, 48 h; read-out: Caspase Activation Potency EC50 (nM) (48 h) HCT116
Procedure: (§8) Human breast cancer cell line T-47D, human lung cancer cell line H1299 and human hepatocellular carcinoma cell line SNU398 were grown according to media component mixtures designated by American Type Culture Collection+10% FCS (Invitrogen Corporation), in a 5% CO2-95% humidity incubator at 37° C. T-47D and H1299 cells were maintained at a cell density between 50 and 80% confluency at a cell density of 0.1 to 0.6×10^6 cells/mL. Cells were harvested at 600×g and resuspended at 0.65×10^6 cells/mL into appropriate media+10% FCS. […] Using a fluorescent plate reader (Model SPECTRAfluor Plus, Tecan), an initial reading (T=0) was made approximately 1-2 min after addition of the substrate solution, employing excitation at 485 nm and emission at 530 nm, to determine the background fluorescence of the control sample. After the 3 h incubation, the samples were read for fluorescence as above (T=3 h).
as §6
as §7, with “Inc.). […]” for “Inc.).”

[8] = system: cervical cancer cell line HeLa; assay: Caspase cascade activation in HeLa cells; assay type: cell-based; details: Homo sapiens, 48 h, read-out: Caspase Activation Potency EC50 (nM) (48 h) HeLa
Procedure: as §8, §6
as §7, with “Inc.). […]” for “Inc.).”

[9] = system: human B cell lymphoblastoid cell line Ramos; assay: Caspase cascade activation in Ramos cells; assay type: cell-based; details: 48 h, read-out: Caspase Activation Potency EC50 (nM) (48 h) Ramos
Procedure: as §8, §6
as §7, with “Inc.). […]” for “Inc.).”

[10] = system: human Burkitt's lymphoma cell line Namalwa; assay: Caspase cascade activation in Namalwa cells; assay type: cell-based; details: Burkitts lymphoma cell, 48 h, read-out: Caspase Activation Potency EC50 (nM) (48 h) Namalwa
Procedure: as §8, §6
as §7, with “Inc.). […]” for “Inc.).”

[11] = system: human lymphoma cell line Raji; assay: Caspase cascade activation in Raji cells; assay type: cell-based; details: 48 h, read-out: Caspase Activation Potency EC50 (nM) (48 h) Raji
Procedure: as §8, §6
as §7, with “Inc.). […]” for “Inc.).”

[12] = Homo sapiens, SNU-398, SNU398, 24 h, read-out: Caspase Activation Potency EC50 (nM) (24 h) SNU398
[13] = Homo sapiens, SNU-398, SNU398, 48 h, read-out: Caspase Activation Potency EC50 (nM) (48 h) SNU398

| SMILES | GI50 in Multi-Cancer Cells EC50 (nM) P388/ADR [1] [nM] | GI50 in Multi-Cancer Cells EC50 (nM) MES-SA [2] [nM] | EC50 ([3]; Homo sapiens, T47D) [nM] | GI50 in Multi-Cancer Cells EC50 (nM) MES-SA/ADR [4] [nM] | EC50 ([5]; Homo sapiens, NCI-H1299, 24 h) [nM] | GI50 in Multi-Cancer Cells EC50 (nM) P388 [6] [nM] | EC50 [7, 12] [nM] | EC50 (HCT116) [nM] | EC50 [8] [nM] | EC50 [7, 13] [nM] | further results |
| --- | --- | --- | --- | --- | --- | --- | --- | --- | --- | --- | --- |
| COc1ccc(N(C)c2nc(C)nc3sc(C)c(C)c23)cc1 [Example 24, N-(4-Methoxyphenyl)-N,2,5,6-tetramethylthieno[2,3-d]pyrimidin-4-amine] |  |  | 17 |  | 59 |  | 27 | 15 | 30 | 16 |  |
| COc1ccc(N(C)c2nc(C)nc3sccc23)cc1.Cl [Example 5, N-(4-Methoxyphenyl)-N,2-dimethylthieno[2,3-d]pyrimidin-4-amine hydrochloride] | 4 | 3 | 8 | 5 | 14 | 7 | 12 | 27 | 8 | 9 | EC50 [9]: 27 nM; EC50 [10]: 20 nM; EC50 [11]: 20 nM |
| COc1ccc(N(C)c2nc(C)nc3scc(C)c23)cc1 [Example 4, N-(4-Methoxyphenyl)-N,2,5-trimethylthieno[2,3-d]pyrnmidin-4-amine] |  |  |  |  |  |  |  |  |  |  | GI50 (MDAMB435 cells): 5 nM; GI50 (H1299 cells): 2 nM; EC50 [3]: 4 nM; EC50 ([5]; H1299, 24 h): 9 nM; GI50 (MX-1 cells): 5 nM; GI50 (HT29 cells): 5 nM; GI50 (T-47D cells): 5 nM; EC50 ([7]; SNU398, 24 h, read-out: Caspase Activation Potency EC50 (nM) (24 h) SNU398): 4 nM |

Now from value to compound, other results behind:

| GI50 in Multi-Cancer Cells EC50 (nM) P388/ADR [1] [nM] | GI50 in Multi-Cancer Cells EC50 (nM) MES-SA [2] [nM] | EC50 ([3]; Homo sapiens, T47D) [nM] | GI50 in Multi-Cancer Cells EC50 (nM) MES-SA/ADR [4] [nM] | EC50 ([5]; Homo sapiens, NCI-H1299, 24 h) [nM] | GI50 in Multi-Cancer Cells EC50 (nM) P388 [6] [nM] | EC50 [7, 12] [nM] | EC50 (HCT116) [nM] | EC50 [8] [nM] | EC50 [7, 13] [nM] | SMILES | further results |
| --- | --- | --- | --- | --- | --- | --- | --- | --- | --- | --- | --- |
| 105 | 58 | 45 | 100 | 56 | 74 | 123 |  |  |  | COc1ccc(N(C)c2ncnc3ccsc23)cc1 [Example 6, N-(4-Methoxyphenyl)-N-methylthieno[3,2-d]pyrimidin-4-amine] | GI50 (MDAMB435 cells; Homo sapiens, MDA-MB-435): 16 nM; GI50 (H1299 cells; Homo sapiens, NCI-H1299): 38 nM; GI50 (MX-1 cells; Homo sapiens): 40 nM; GI50 (HT29 cells; Homo sapiens, HT-29): 40 nM; GI50 (T-47D cells; Homo sapiens): 4 nM |
| 16 | 12 | 14 | 13 | 24 | 15 | 28 |  |  |  | COc1ccc(N(C)c2nc(C)nc3ccsc23)cc1 [Example 1, N-(4-Methoxyphenyl)-N,2-dimethylthieno[3,2-d]pyrimidin-4-amine] |  |
